{"source": "patent US20090258053A1", "about": "“MEDICAL STENT PROVIDED WITH A COMBINATION OF MELATONIN AND PACLITAXEL” (Blue Medical Deevices BV, priority 2006, published 2009)", "key": {"[1]": {"system": "human coronary artery endothelial cells (HCAEC)", "assay": "CellTiter 96 One solution (MTS) cell proliferation assay, HCAEC", "type": "cell-based", "method": "(§1) Human coronary artery endothelial cells (HCAEC) were purchased from Cambrex and human coronary artery smooth muscle cells (HCASMC) were purchased from Promocell. Cells were used for experiments between passage 4 and passage 12. Both cell types were cultured in their respective complete culture medium with the following composition: • HCASMC: Smooth Muscle Cell Growth Medium 2: Epidermal Growth Factor (EGF), basic Fibroblast Factor (FGF), Insulin, Fetal Calf Serum (FCS) 5%, Amphotericin B, Gentamicin. • HCAEC: Endothelial Growth Media-2 MV: hEGF, Hydrocortisone, GA-1000, FBS 5%, VEGF, hFGF-B, R3-IGF-1, Ascorbic Acid Medium was changed every other day. 24 hours prior to growth factor stimulation, the medium was replaced by fresh culture medium, however, without growth factors to increase the cellular sensitivity to the subsequent growth factor stimulation. Subconfluent HCAEC were stimulated with 10 ng/ml of VEGF-A, whereas subconfluent HCASMC were stimulated with 10 ng/ml of PDGF-BB. Likewise, both cell types were stimulated with 25% of human serum (final concentration). Melatonin (Acros organics) was kindly provided by BlueMedical Devices BV. A stock solution was prepared in DMSO, aliquoted and stored at −20° C. For each experiment a fresh aliquot was opened and diluted to the desired final concentration in cell culture medium. All proliferation and cytotoxicity experiments were performed on cells cultured on 96 well plates (Costar). The CellTiter 96 One solution cell proliferation assay from Promega was used to assess cell proliferation in a 96-well plate. This assay makes use of the MTS tetrazolium compound as a cellular substrate. MTS is bioreduced by living cells into a coloured formazan product that is soluble in tissue culture medium and absorbs light at 490 nm. The quantity of formazan produced is directly proportional to the number of living cells in culture. After 24 h stimulation, 20 μl of MTS reagent was added to the cells cultured in 100 ul of medium per well. After 2 to 4 hours of incubation at 37° C., 5% CO2, the absorbance at 490 nm was recorded using a 96-well plate reader (Tecan)."}, "[2]": {"system": "HUVEC (Human Umbilical Vein Endothelial Cells)", "assay": "[3H]-thymidine incorporation, HUVEC stimulated with VEGF-A", "type": "cell-based", "settings": "VEGF A 10 ng/ml 24 hours", "method": "To investigate, whether melatonin has similar effects on other cell types, HUVEC (Human Umbilical Vein Endothelial Cells, Promocell) were tested. HUVEC were cultured in the corresponding complete medium (Endothelial Cell Growth Medium: ECGS/H 0.4%, Fetal Calf Serum 2%, Epidermal Growth Factor 0.1 ng/ml, Hydrocortison 1 μg/ml, basic Fibroblast Factor 1 ng/ml, Amphotericin B 50 ng/ml, Gentamicin 50 μg/ml). 24 hours prior to stimulation, the medium was replaced by a medium containing 2% serum and antibiotics, but devoid of the other complements. Then, HUVEC were stimulated with 10 ng/ml of VEGF-A for 24 hours. HUVEC were incubated for 48 hours with Melatonin and stimulated for 24 hours with VEGF-A at 10 ng/ml. After 24 hours of stimulation, the cells were incubated with radioactive [^3H]-thymidine. Two hour later, the medium was removed and cell-bound DNA was precipitated using 5% TCA (Trichloroacetic acid). Then, [^3H]-thymidine incorporation was measured using a beta-counter."}, "HCAEC [3]": {"system": "HCAEC", "assay": "CytoTox-ONE LDH release cytotoxicity assay, HCAEC", "type": "cell-based, human", "settings": "48 hours, 0.2 to 6 mM Melatonin", "method": "(§2) Cytotoxicity experiments were performed with cells cultured on 96-well plates. The CytoTox-ONE™ Assay from Promega was used to assess the membrane integrity of cells. This test is based on a fluorometric method to estimate the number of non viable cells present in multiwell plates by measuring the release of lactate dehydrogenase (LDH) from cells with damaged membranes. Subconfluent cells were incubated for 48 hours with Melatonin at concentrations between 0.2 and 6 mM. During the 48 h Melatonin incubation, the medium was not changed to avoid removal of any detached cells. As a positive control three wells of untreated cells were incubated with lysis buffer (delivered with the assay) before measurement. At the end of the Melatonin incubation period, a volume of CytoTox-ONE reagent equal to the volume of cell culture medium present in each well was added. After 10 min incubation at 22° C. (room temperature), 50 μl of stop solution was added per 100 μl of CytoTox-ONE reagent added. The plate was shaked for 10 seconds and fluorescence was recorded with an excitation wavelength of 560 nm and an emission wavelength of 590 nm (Spectramax M2 fluorescence plate reader, Molecular devices)."}, "HCASMC": {"system": "HCASMC", "assay": "CytoTox-ONE LDH release cytotoxicity assay, HCASMC", "type": "cell-based, human", "settings": "48 hours, 0.2 to 6 mM Melatonin", "method": "as §2"}, "[4]": {"system": "human coronary artery smooth muscle cells (HCASMC)", "assay": "CellTiter 96 One solution (MTS) cell proliferation assay, HCASMC", "type": "cell-based", "method": "as §1"}, "HCAEC [5]": {"system": "HCAEC", "assay": "Chemotaxis towards VEGF-A, modified Boyden chamber, HCAEC", "type": "cell-based, human", "settings": "2 mM Melatonin; VEGF-A 10 ng/ml; migration 4 hours; performed only once", "method": "Chemotaxis experiments were performed using a modified Boyden chamber. The apparatus consists of two multi-well chambers separated by a filter containing pores of uniform size. A solution containing a chemokine or chemotactic factor is placed in the lower/bottom chamber and a cell suspension is placed in the upper chamber. Cells can migrate through the pores across the filter and towards the chemoattractant in the lower chamber. Cells that migrated across the filter and remain attached to the lower side of the membrane are counted. Data are expressed in terms of migration index: the number of cells that migrated in response to agonist stimulation compared to the number of cells that migrated randomly, i.e. to medium only. Chemotaxis experiments so far were only performed with HCAEC. For these cells a 25×80 mm polycarbonate filter, […] (PVP) free was used (Whatman) with a pore size of […]. Before migration the filter was coated with collagen. Endothelial cells were incubated with Melatonin at 2 mM prior to and during migration. After 24 hours pre-incubation with Melatonin, untreated and Melatonin-treated cells were detached with trypsin and a cell suspension (0.5 million cells/ml) was loaded in the upper part of the chamber. […] At the end of migration, cells were fixed on the filter, stained with Giemsa and counted using a regular optic microscope."}}, "note": "“And” between values parts separate entries of the source, which are not always exact repeats. Identical values can stand only once.", "data": [{"smiles": "COc1ccc2[nH]cc(CCNC(C)=O)c2c1", "note": "[Melatonin, N-acetyl-5-methoxytryptamine]", "values": [{"measurement": "concentrations at which proliferation of HCAEC is strongly inhibited", "setting": "[1]", "value": "higher than 0.2 mM"}, {"measurement": "effect on HCAEC cell number", "setting": "[1]; Melatonin between 1 mM and 6 mM", "value": "dramatic decrease in cell number"}, {"measurement": "sensitivity of HCAEC proliferation", "setting": "[1]; Melatonin up to 0.1 mM", "value": "not sensitive"}, {"measurement": "concentration of maximal effect on HCAEC cell number", "setting": "[1]; subconfluent cells", "value": "3 mM and 6 mM"}, {"measurement": "effect on HUVEC", "setting": "[2]; 0.2 mM Melatonin, 48 hours", "value": "inhibitory effect"}, {"measurement": "VEGF-A induced [3H]-thymidine incorporation", "setting": "[2]; Melatonin 48 hours", "value": "completely inhibited"}, {"measurement": "cytotoxic effect (LDH release) on HCAEC", "setting": "HCAEC [3]", "value": "does not induce any detectable cytotoxic effect"}, {"measurement": "cytotoxic effect (LDH release) on HCASMC", "setting": "HCASMC", "value": "does not induce any detectable cytotoxic effect"}, {"measurement": "concentrations at which proliferation of HCASMC is strongly inhibited", "setting": "[4]", "value": "higher than 0.2 mM"}, {"measurement": "effect on number of smooth muscle cells", "setting": "[4]; 1 mM Melatonin, 24 hours pre-treatment, PDGF BB 10 ng/ml 24 h", "value": "significant decrease in the number of smooth muscle cells"}, {"measurement": "effect on the proliferation of HCASMC", "setting": "[4]; Melatonin up to 0.1 mM, PDGF BB 10 ng/ml 24 h", "value": "no significant effect"}, {"measurement": "concentration of maximal inhibitory effect on HCASMC", "setting": "[4]; PDGF-BB stimulated", "value": 5, "unit": "mM"}, {"measurement": "inhibitory effect on HCASMC at higher concentrations", "setting": "[4]; above 5 mM, up to 10 mM", "value": "no significant further increase in the inhibitory effect"}, {"measurement": "effect on chemotactic response of HCAEC towards VEGF-A", "setting": "HCAEC [5]", "value": "did not have any significant effect"}]}]}
